Test results reported in paper PMC11845477, “Exploring the principles behind antibiotics with limited resistance” (Nature Communications, 2025).
Values joined by “and” are separate entries in the source; they are usually repeats but may differ in a detail not shown here. Identical values can stand only once. Where a SMILES comes first, the peptide text is derived from it. Bridges are numbered along the chain shown (N, C = ends). [ ]: non-standard residue; d: D form. The star is where a group is joined. X1 = NC[C@@H](CC(=O)*)c1cccc(Cl)c1; X2 = CC[C@H](C)CCCCC(=O)*; Dab = NCC[C@H](N)C(=O)O; Dap = NC[C@H](N)C(=O)O

Tests used:
A. baumannii = assay: Bacterial survival at 10xMIC for 4 hours; assay type: cell-based, Acinetobacter baumannii; settings: for Survival rate (log10): Acinetobacter baumannii, survival at 10xMIC for 4 hours, single replicates, (fig 9a source data)
Procedure: We employed image analysis to quantify bacterial survival under fixed antibiotic concentrations (10xMIC for 4 hours) on E. coli, A. baumannii, K. pneumoniae, and P. aeruginosa. […] Survival rate was quantified by calculating the ratio of the viable cells after antibiotic treatment and the total initial viable cell count.
(§1) Fig. 9 Killing kinetics of the studied antibiotics. a Bacterial survival rate in response to toxic antibiotic exposure. […] The bars indicate the survival rate (log10) compared to the untreated initial viable cell count (see “Methods”). Data are presented as mean values of 5 biological replicates ± SEM. The antibiotic group differentiation is denoted by color. […] Survival was estimated by measuring cell viability (colony-forming units/ml) of 2 biologically independent strains following a 4-hour exposure to different concentrations of 16 antibiotics on E. coli ATCC25922 (for further details, see “Methods”). The antibiotic concentration that kills 99.9% of the E. coli population is indicated as a vertical dotted line (see Supplementary Data 5). Error bars represent standard error calculated from the colony counts by Poisson’s model. A Hill function was fitted to the dose-response data from two biological replicates, producing sigmoidal curves (Supplementary Data 5). The Hill coefficient reflects how steeply the survival rate decreases in response to increasing antibiotic concentration ([…]). […] X-axis label colors indicate mode of action groups. For detailed information on antibiotic and bacterial species, see Supplementary Data 1. Source data are provided as a Source Data file.
(§2) In this current study, the killing kinetics of each antibiotic was measured according to a previously established experimental protocol[62] with minor modifications. During this assay, the bacterial cultures were exposed to antibiotics in 96-well assay plates and their viability after 4 hours of exposure was quantified by two methods: i) microplating and colony counting or ii) fluorescent staining of cells and counting of the fluorescent units.
(§3) Specifically, these experiments were performed in the following steps: (1) Preparation of bacterial stocks. Single colonies from each strain were isolated and grown overnight in MHB medium at 37 °C, 160 rpm. In case of the fluorescently tagged E. coli strains, the medium was supplemented with 10 μg/mL chloramphenicol, to maintain the pZS2R plasmid. Overnight cultures were diluted 1:5000 and grown to an optical density at 600 nm (OD600) of 0.25. These cultures were concentrated by centrifugation and small aliquots of 50 μL containing ~2.2 × 10^9 cells were frozen in glycerol (stored at −80 °C). (2) Preparing assay plates with antibiotics. 96-well plates were filled with 235 μL MHB and supplemented with antibiotics using an automated digital dispenser (D300e, Tecan). In the case of SCH79797, we used minimal media. […] For testing the clearance efficacy of each antibiotic at a single lethal dose, the 10x of the MIC for each antibiotic-strain pair were prepared in at least three replicates. (3) Antibiotic exposure. During the dose response assay, frozen cultures of the E. coli strains expressing YFP and mCherry were thawed and mixed at a 1:1 ratio, diluted 1:1000 in 30 mL MHB and incubated for 45 min at 37 °C and 160 rpm. During the single-dose assay, the frozen cultures of experimental strains (E. coli, K. pneumoniae, A. baumannii) were also thawed and diluted 1:1000 in 30 mL MHB and incubated at 37 °C to reach an OD of 0.25 and 160 rpm. Following this incubation phase, these bacterial cultures were then aliquoted into the 96-well deep-well antibiotic plates (15 μL culture; total volume of 250 μL) at an inoculum density of about 10^7 CFU.

E. coli ATCC25922 = assay: Dose-response killing curves (99.9% killing concentration, Hill coefficient); assay type: cell-based, Escherichia coli; settings: dose-response killing curve; for 99.9% killing (10^-3): unit not given
From the text: as §1
To test the dose range under which resistance can evolve, we employed advanced microplating and automated image analysis. We quantified bacterial population survival at varying antibiotic concentrations[62] (see “Methods”) in E. coli. Briefly, we generated dose-response curves and investigated how steeply the killing effect increases as the antibiotic concentration rises. In specific, the Hill coefficient representing each bacterial strain-antibiotic combination was calculated to quantify dose-kill kinetics.
as §2
as §3, with “rpm.” for “rpm. Following this incubation phase, these bacterial cultures were then aliquoted into the 96-well deep-well antibiotic plates (15 μL culture; total volume of 250 μL) at an inoculum density of about 10^7 CFU.”

Compound | Steepness (Hill Coefficient) (E. coli ATCC25922) | 99.9% killing (10^-3) (E. coli ATCC25922) | also measured
CN[C@@H]1[C@@H](O[C@H]2O[C@H](CO)[C@@H](N)[C@H](O)[C@H]2O)OC2C[C@@H](N)[C@@H](O[C@H]3[C@H](O)[C@@H](O)[C@H](N)C[C@@H]3N)OC2[C@@H]1O (stereo partly drawn) [Apramycin] |  |  | Survival rate (log10) (A. baumannii; listed as APR): -1.378 log10 and -1.536 log10 and -1.241 log10 and -1.504 log10 and -1.3851 log10
Nc1nc(-n2cc(C(=O)O)c(=O)c3cc(F)c(N4CC(O)C4)c(Cl)c32)c(F)cc1F [Delafloxacin] |  |  | Survival rate (log10) (A. baumannii; listed as DEL): -1.416 log10 and -1.661 log10 and -1.352 log10 and -1.5252 log10 and -1.635 log10
CN(C)[C@@H]1C(O)=C(C(N)=O)C(=O)[C@@]2(O)C(O)=C3C(=O)c4c(O)c(NC(=O)CN5CCCC5)cc(F)c4C[C@H]3C[C@@H]12 [Eravacycline] |  |  | Survival rate (log10) (A. baumannii; listed as ERA): -1.499 log10 and -1.238 log10 and -1.644 log10 and -1.596 log10 and -1.425 log10
CNC(C)C1CCC(N)C(OC2C(N)CC(N)C(OC3OCC(C)(O)C(NC)C3O)C2O)O1 (stereo not drawn) [Gentamicin] |  |  | Survival rate (log10) (A. baumannii; listed as GEN): -1.432 log10 and -1.215 log10 and -1.434 log10 and -1.4437 log10 and -1.516 log10
CC[C@H](C)CCCCC(=O)N[C@@H](CCN)C(=O)N[C@H](C(=O)N[C@@H](CCN)C(=O)N[C@H]1CCNC(=O)[C@H]([C@@H](C)O)NC(=O)[C@H](CCN)NC(=O)[C@H](CCN)NC(=O)[C@H](CC(C)C)NC(=O)[C@@H](Cc2ccccc2)NC(=O)[C@H](CCN)NC1=O)[C@@H](C)O [Polymyxin B] (X2-[Dab]T[Dab][Dab][Dab][dF]L[Dab][Dab]T; lactam 4-C (inferred); N-terminus assumed) | 46.82 | 1.08 | Survival rate (log10) (A. baumannii; listed as PMB): -3.38 log10 and -2.762 log10 and -3.033 log10 and -2.9785 log10 and -2.974 log10
CC(C)c1ccc(Cn2ccc3c4c(N)nc(NC5CC5)nc4ccc32)cc1 [SCH79797] | 16.39 | 4.31 | bacterial survival after toxic antibiotic exposure (A. baumannii; 10xMIC for 4 hours): eliminated the entire bacterial population; Survival rate (log10) (A. baumannii): -6 log10
CC(C)C[C@@H]1NC(=O)[C@@H](Cc2ccccc2)NC(=O)[C@H](CCN)NC(=O)[C@@H](NC(=O)[C@H](CN)NC(=O)[C@@H](NC(=O)C[C@H](CN)c2cccc(Cl)c2)[C@@H](C)O)CCNC(=O)[C@H]([C@@H](C)O)NC(=O)[C@H](CCN)NC(=O)[C@H](CCN)NC1=O [SPR206] (X1-T[Dap][Dab][Dab][dF]L[Dab][Dab]T; lactam 3-C (inferred); N-terminus assumed) | 59.45 | 0.18 | Survival rate (log10) (A. baumannii; listed as SPR): -1.951 log10 and -2.839 log10 and -3.084 log10 and -1.511 log10 and -2.915 log10
C[C@@H](O)[C@H]1C(=O)N2C(C(=O)O)=C(S[C@H]3CC[S@@+]([O-])C3)S[C@H]12 [Sulopenem] | 1.03 | 0.18 | Survival rate (log10) (A. baumannii; listed as SUO): -2.317 log10 and -2.432 log10 and -2.658 log10 and -2.635 log10
POL7306 | 43.61 | 2.31 | Survival rate (log10) (A. baumannii; listed as POL): -3.645 log10 and -4.987 log10 and -2.756 log10 and -3.625 log10 and -3.539 log10
Tridecaptin M152-P3 | 18.9 | 4.73 | Survival rate (log10) (A. baumannii; listed as TRD): -2.876 log10 and -2.59 log10 and -2.704 log10 and -2.72 log10 and -2.696 log10
colistin |  |  | Survival rate (log10) (A. baumannii; listed as COL): -3.481 log10 and -3.59 log10 and -3.495 log10 and -4.987 log10 and -3.369 log10
